Experimental data from US7868204B2, “Inhibitors of histone deacetylase” (MethylGene Inc., priority 2001, dated 2011).
Read-outs that look alike come from different tables or passages of the source.

What was measured:
[1] = tested on: acetylated histone H-4 in T24 human bladder cancer cells; experiment: Histone H4 acetylation in whole cells by immunoblots; format: cell-based; conditions: 16 h
Summary of the method: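 Acetylated histone H4 was quantified by densitometry of ECL-developed immunoblots, probed with a polyclonal antibody, of […] total histone from T24 cultures exposed 16 h to HDAC inhibitors.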

[2] = molecular target: T1, cloned recombinant human HDAC-1 (Homo sapiens, UniProt Q13547); experiment: Human HDAC-1 enzyme inhibition, Assay 1 ([3H]-acetylated histone substrate, scintillation counting); format: biochemical
T1 construct: made in house; host or cells: Baculovirus insect cell expression system
Summary of the method: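 Activity read as [3H]-acetic acid liberated from labeled substrate, ethyl acetate-extracted and scintillation-counted. Compounds preincubated 30 min at 4° C. with baculovirus-expressed, purified human HDAC-1. Dose-response curves give IC50 as concentration producing fifty percent of maximal inhibition.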

HCT116 cells = experiment: MTT assay; format: cell-based; conditions: Homo sapiens, HCT116 cells, 72 hours
Summary of the method: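 Read-out: MTT (0.5 mg/ml final, 4 h) after solubilization in 50% DMF/20% SDS, pH 4.7, with OD translated into cell number via the line's growth curve. Compound treatment lasted 72 h at 37 °C in 5% CO2, starting a day after plating.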

[3] = T-24, Table 5F, read-out: H4 Ac (T24) EC50
[4] = Table 5F, read-out: Human HDAC-1 IC50

T1 sequence (Q13547 whole entry): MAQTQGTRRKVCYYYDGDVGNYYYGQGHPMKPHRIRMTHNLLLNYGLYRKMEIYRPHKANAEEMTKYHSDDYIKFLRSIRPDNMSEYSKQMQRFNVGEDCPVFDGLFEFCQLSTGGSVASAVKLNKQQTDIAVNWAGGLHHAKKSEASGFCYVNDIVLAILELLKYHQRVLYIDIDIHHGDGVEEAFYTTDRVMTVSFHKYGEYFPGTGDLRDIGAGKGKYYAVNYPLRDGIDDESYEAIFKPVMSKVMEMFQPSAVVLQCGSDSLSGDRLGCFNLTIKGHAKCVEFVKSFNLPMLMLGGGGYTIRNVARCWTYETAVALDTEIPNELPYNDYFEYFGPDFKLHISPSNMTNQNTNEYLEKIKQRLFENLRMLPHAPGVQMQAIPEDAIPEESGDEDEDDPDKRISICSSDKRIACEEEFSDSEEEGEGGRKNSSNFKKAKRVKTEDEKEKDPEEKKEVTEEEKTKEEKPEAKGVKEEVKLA

| Compound | EC50 [1, 3] [nM] | IC50 [2, 4] [nM] | IC50 (HCT116 cells; HCT-116, 72 h, Table 5F) [nM] | also measured |
| --- | --- | --- | --- | --- |
| COc1cc(CNc2ccc3sc(C(=O)Nc4ccccc4N)cc3c2)cc(OC)c1OC [compound 590, 5-(3,4,5-Trimethoxy-benzylamino)-benzo[b]thiophene-2-carboxylic acid (2-amino-phenyl)-amide] | 3000 | 2000 | 2000 |  |
| Nc1ccccc1NC(=O)/C=C/c1ccc(NCc2cc(F)cc(F)c2)nc1 [Cpd 100, N-(2-aminophenyl)-3-[6-(3,5-difluoro-benzylamino)-pyridin-3-yl]-acrylamide] |  |  |  | EC50 ([1]; T-24, Table 5c, read-out: H4Ac (T24) EC50): 5000 nM; IC50 ([2]; Table 5c, read-out: Human HDAC-1 IC50): 4000 nM; IC50 (HCT116 cells; HCT-116, 72 h, Table 5c): 3000 nM |
| Nc1ccccc1NC(=O)c1ccc(CNc2nc3ccccc3[nH]2)cc1 [Cpd 389] | 1000 | 3000 | 200 |  |
| Nc1ccccc1NC(=O)c1ccc(CNc2ccc3c(c2)OCCO3)cc1 [Cpd 400, N-(2-Amino-phenyl)-4-[(2,3-dihydro-benzo[1,4]dioxin-6-ylamino)-methyl]-benzamide] | 2000 | 8000 | 300 |  |
| Cc1cc(C)c(NCc2ccc(C(=O)Nc3ccccc3N)cc2)c(C)c1 [Cpd 410, N-(2-Amino-phenyl)-4-[(2,4,6-trimethyl-phenylamino)-methyl]-benzamide] | > 5000 | 900 | 100 |  |
| Nc1ccccc1NC(=O)c1ccc(NCCc2ccc(F)cc2)nc1 [Cpd 174] |  |  |  | EC50 ([1]; T-24, Table 5E, read-out: H4 Ac (T24) EC50): 5000 nM; IC50 ([2]; Table 5E, read-out: Human HDAC-1 IC50): 4000 nM; IC50 (HCT116 cells; HCT-116, 72 h, Table 5E): 400 nM |
| COc1cc(OC)nc(NCc2ccc(/C=C/C(=O)Nc3ccccc3N)cc2)n1 [Cpd 492, N-(2-Amino-phenyl)-3-{4-[(4,6-dimethoxy-pyrimidin-2-ylamino)-methyl]-phenyl}-acrylamide] |  |  |  | EC50 ([1]; T-24, Table 5d, read-out: H4Ac(T24) EC50): 10000 nM; IC50 ([2]; Table 5d, read-out: HDAC-1 IC50): 4000 nM; IC50 (HCT116 cells; HCT-116, Table 5d): 9000 nM |
| Nc1ccccc1NC(=O)c1ccc(CN2C(=O)CSc3ccccc32)cc1 [Cpd 363, N-(2-Amino-phenyl)-4-(3-oxo-2,3-dihydro-benzo[1,4]thiazin-4-ylmethyl)-benzamide] | 3000 | 1000 | 300 |  |
| COc1cc(CNc2ccc3oc(C(=O)Nc4ccccc4N)cc3c2)cc(OC)c1OC [Cpd 592, 5-(3,4,5-Trimethoxy-benzylamino)-benzofuran-2-carboxylic acid (2-amino-phenyl)-amide] | < 1000 | 5000 | 400 |  |
| COc1ccccc1CCNc1nc(N)nc(NCc2ccc(C(=O)Nc3ccccc3N)cc2)n1 [Cpd 23, 4-({4-Amino-6-[2-(2-methoxy-phenyl)-ethylamino]-[1,3,5]triazin-2-ylamino}-methyl)-N-(2-amino-phenyl)-benzamide] |  |  |  | EC50 ([1]; T-24, Table 5a, read-out: H4Ac (T24) EC50): 1000 nM; IC50 ([2]; Table 5a, read-out: Human HDAC-1 IC50): 2000 nM; IC50 (HCT116 cells; HCT-116, 72 h, Table 5a): 700 nM |
| COc1cc(NCc2ccc(-c3ccc(C(=O)Nc4ccccc4N)cc3)cc2)cc(OC)c1OC [Cpd 189, N-(2-Amino-phenyl)-4-[4-{(3,4,5-trimethoxy-phenylamino)-methyl}-phenyl]-benzamide] | 5000 | 3000 | 2000 |  |
| Nc1ccccc1NC(=O)c1ccc(Cn2cnc3ccsc3c2=O)cc1 [Cpd 257] | 1000 | 400 | 400 |  |
| Nc1ccccc1NC(=O)c1ccc(Cn2nnc3ccc(Cl)cc3c2=O)cc1 [Cpd 348, N-(2-Amino-phenyl)-4-(6-chloro-4-oxo-4H-benzo[d][1,2,3]triazin-3-ylmethyl)-benzamide] | 1000 | 2000 | 300 |  |
| COc1cc(NCc2ccc(-c3ccc(C(=O)Nc4ccccc4N)cc3)s2)cc(OC)c1OC [Cpd 323] | 1000 | 1000 | 600 |  |
| COc1cc(C#N)c(NCc2ccc(C(=O)Nc3ccccc3N)cc2)cc1OC [Cpd 404] | 5000 | 3000 | 600 |  |
| COc1nc(NCc2ccc(C(=O)Nc3ccccc3N)cc2)nc(NC2Cc3ccccc3C2)n1 [Cpd 214] |  |  |  | EC50 ([1]; T-24, Table 5b, read-out: H4Ac (T24) EC50): 1000 nM; IC50 ([2]; Table 5b, read-out: Human HDAC-1 IC50): 3000 nM; IC50 (HCT116 cells; HCT-116, 72 h, Table 5b): 900 nM |
